Consider seven compounds from DBAASP.

Among the test systems are Escherichia coli UB1005; Candida albicans; Staphylococcus aureus; Proteus mirabilis; Streptococcus pyogenes; Pseudomonas aeruginosa.
Assay in all cases: ≥ marks a high value that may be exact or a test limit, other limits are often not marked, values filed in µg/mL are converted to µM
Assay [1] deals with Staphylococcus aureus ATCC 25923.
Assay [2] has as its system Staphylococcus epidermidis.
The test system of assay [3] is Salmonella enterica serovar Typhimurium.
For assay [4], the system named is Pseudomonas aeruginosa H103.
For assay [5], the system named is Staphylococcus aureus ATCC 29213.
The subject of assay [6] is Pseudomonas aeruginosa ATCC 27853.
Assay [7] deals with Staphylococcus aureus ATCC 33591.
In assay [8] the test system is Klebsiella pneumoniae ATCC 700603.
Assay [9] concerns Staphylococcus aureus ATCC 700699.
Assay [10] has as its system Escherichia coli ATCC 25922.
The test system of assay [11] is Bacillus subtilis DSM 347.
Assay [12] concerns Escherichia coli DH5alpha.
For assay [13], the system named is Bacillus subtilis KCTC 1021.
Assay [14] relates to Pseudomonas aeruginosa KCTC 2004.
Assay [15] relates to Pseudomonas aeruginosa KCTC 2513.
The test system of assay [16] is Escherichia coli KCTC 2593.
Assay [17] deals with Pseudomonas aeruginosa KCTC 1637.
Assay [18] has as its system Bacillus subtilis KCTC 1022.
In assay [19] the test system is Salmonella typhimurium KCTC 1926.
In assay [20] the test system is Staphylococcus aureus KCTC 3881.
For assay [21], the system named is Bacillus subtilis KCTC 3068.
In assay [22] the test system is Escherichia coli KCTC 1682.
Assay [23] concerns Staphylococcus epidermidis KCTC 1917.
Assay [24] has as its system Staphylococcus aureus KCTC 1621.
Assay [25] has as its system Staphylococcus aureus KCTC 1916.
Assay [26] deals with Escherichia coli KCTC 2571.

Structures are written as SMILES. In brackets after ≈: the same amount, converted by molar mass.

As usually defined, the MIC is the lowest concentration found to suppress growth.

On to `CC[C@H](C)[C@H](NC(=O)[C@H](Cc1c[nH]c2ccccc12)NC(=O)[C@H](CC(C)C)NC(=O)[C@H](CCCN=C(N)N)NC(=O)[C@@H](N)C(C)C)C(=O)N[C@@H](CCCN=C(N)N)C(=O)N[C@H](C(=O)N[C@@H](C)C(=O)N[C@H](C(=O)N[C@H](C(=O)N[C@@H](CCCN=C(N)N)C(=O)N[C@@H](C)C(N)=O)[C@@H](C)CC)C(C)C)C(C)C` [VRLWIRVAVIRA], for which the MIC is 34.4 µM (≈ 50 µg/mL) in assay [1]; 4.13 µM (≈ 6 µg/mL) against Escherichia coli UB1005; 2.07 µM (≈ 3 µg/mL) in [2]; 34.4 µM (≈ 50 µg/mL) with Candida albicans; not below 34.4 µM in assay [3]; not below 34.4 µM in [4].

Regarding `CC[C@H](C)[C@H](NC(=O)[C@H](CC(=O)O)NC(=O)[C@H](CCCCN)NC(=O)[C@H](C)NC(=O)[C@H](C)NC(=O)CNC(=O)[C@H](CCCCN)NC(=O)[C@H](CC(C)C)NC(=O)[C@@H](NC(=O)[C@H](CC(=O)O)NC(=O)[C@@H](NC(=O)[C@@H](NC(=O)CN)C(C)C)C(C)C)[C@@H](C)CC)C(=O)N[C@@H](CC(C)C)C(=O)NCC(=O)N[C@@H](Cc1cnc[nH]1)C(=O)N[C@@H](CC(C)C)C(=O)N[C@@H](C)C(=O)N[C@@H](CO)C(=O)N[C@@H](CCCCN)C(=O)N[C@H](C(=O)N[C@@H](CCSC)C(=O)N[C@@H](CC(N)=O)C(=O)N[C@@H](CCCCN)C(=O)N[C@@H](CC(C)C)C(N)=O)C(C)C` [GVVDILKGAAKDILGHLASKVMNKL], the MIC is 100 µM (≈ 259 µg/mL) in [5]; 50 µM (≈ 130 µg/mL) in [6]; 25 µM (≈ 64.8 µg/mL) in assay [7]; 25 µM (≈ 64.8 µg/mL) in assay [8]; not below 50 µM in assay [9]; 6.25 µM (≈ 16.2 µg/mL) in assay [10].

As to `CC[C@H](C)[C@H](NC(=O)[C@H](CC(=O)O)NC(=O)[C@H](CCCCN)NC(=O)[C@H](C)NC(=O)[C@H](C)NC(=O)CNC(=O)[C@H](CCCCN)NC(=O)[C@H](CC(C)C)NC(=O)[C@H](C)NC(=O)[C@H](CC(=O)O)NC(=O)[C@@H](NC(=O)[C@@H](NC(=O)CN)C(C)C)C(C)C)C(=O)N[C@@H](C)C(=O)NCC(=O)N[C@@H](Cc1cnc[nH]1)C(=O)N[C@@H](CC(C)C)C(=O)N[C@@H](C)C(=O)N[C@@H](CO)C(=O)N[C@@H](CCCCN)C(=O)N[C@H](C(=O)N[C@@H](CCSC)C(=O)N[C@@H](CC(N)=O)C(=O)N[C@@H](CCCCN)C(=O)N[C@@H](CC(C)C)C(N)=O)C(C)C` [GVVDALKGAAKDIAGHLASKVMNKL], the MIC in assay [5] is more than 100 µM; in assay [6], more than 100 µM; in assay [7], not below 100 µM; in [8], more than 100 µM; in [9], not below 100 µM; in [10] it was more than 100 µM.

As for `CC[C@H](C)[C@H](NC(=O)CN)C(=O)NCC(=O)N[C@@H](CCCCN)C(=O)N[C@@H](Cc1ccccc1)C(=O)N[C@H](C(=O)N[C@@H](Cc1cnc[nH]1)C(=O)N[C@@H](C)C(=O)N[C@H](C(=O)N[C@@H](CCCCN)C(=O)N[C@@H](CCCCN)C(=O)N[C@@H](Cc1c[nH]c2ccccc12)C(=O)NCC(=O)N[C@@H](CCCCN)C(=O)N[C@H](C(=O)N[C@@H](Cc1ccccc1)C(=O)N[C@H](C(=O)NCC(=O)N[C@@H](CCC(=O)O)C(=O)N[C@H](C(=O)N[C@@H](C)C(=O)N[C@@H](CCCCN)C(=O)N[C@@H](CO)C(N)=O)[C@@H](C)CC)[C@@H](C)CC)[C@@H](C)O)C(C)C)[C@@H](C)CC` [GIGKFIHAVKKWGKTFIGEIAKS], the MIC in assay [11] was found to be 1.6 µM (≈ 4.02 µg/mL); in [12] it was 0.8 µM (≈ 2.01 µg/mL).

On to `NC(N)=NCCC[C@H](NC(=O)[C@H](CCCN=C(N)N)NC(=O)[C@H](CCCN=C(N)N)NC(=O)[C@H](CCCN=C(N)N)NC(=O)[C@H](CCCN=C(N)N)NC(=O)[C@H](CCCN=C(N)N)NC(=O)[C@H](CCCN=C(N)N)NC(=O)[C@H](CCCN=C(N)N)NC(=O)[C@H](Cc1c[nH]c2ccccc12)NC(=O)[C@H](Cc1c[nH]c2ccccc12)NC(=O)[C@@H](N)Cc1c[nH]c2ccccc12)C(=O)O` [WWWRRRRRRRR], for which the MIC against Staphylococcus aureus is 5.48 µM (≈ 10 µg/mL); in the assay with Proteus mirabilis, not below 35 µM; with Streptococcus pyogenes, 0.479 µM (≈ 0.875 µg/mL); in the assay on Pseudomonas aeruginosa, more than 35 µM.

In the case of `NC(N)=NCCC[C@H](NC(=O)[C@H](Cc1c[nH]c2ccccc12)NC(=O)[C@H](CCCN=C(N)N)NC(=O)[C@H](CCCN=C(N)N)NC(=O)[C@H](Cc1c[nH]c2ccccc12)NC(=O)[C@H](CCCN=C(N)N)NC(=O)[C@H](CCCN=C(N)N)NC(=O)[C@H](Cc1c[nH]c2ccccc12)NC(=O)[C@H](CCCN=C(N)N)NC(=O)[C@H](CCCN=C(N)N)NC(=O)[C@H](Cc1c[nH]c2ccccc12)NC(=O)[C@@H](N)CCCN=C(N)N)C(=O)O` [RWRRWRRWRRWR], the MIC with Staphylococcus aureus is 5.96 µM (≈ 12 µg/mL); in the assay on Proteus mirabilis it was 31.8 µM (≈ 64 µg/mL); against Streptococcus pyogenes, 0.497 µM (≈ 1 µg/mL); against Pseudomonas aeruginosa, more than 31.8 µM.

For the compound `CC[C@H](C)[C@H](NC(=O)CNC(=O)[C@H](CCCN=C(N)N)NC(=O)[C@H](Cc1ccccc1)NC(=O)[C@@H](NC(=O)[C@H](Cc1cnc[nH]1)NC(=O)[C@H](Cc1cnc[nH]1)NC(=O)[C@H](Cc1ccccc1)NC(=O)[C@@H](N)Cc1c[nH]c2ccccc12)[C@@H](C)CC)C(=O)N[C@H](C(=O)N[C@@H](Cc1cnc[nH]1)C(=O)N[C@H](C(=O)NCC(=O)N[C@@H](CCCCN)C(=O)N[C@H](C(=O)N[C@H](C(=O)N[C@@H](Cc1cnc[nH]1)C(=O)N[C@@H](CCCN=C(N)N)C(=O)N[C@@H](CC(C)C)C(=O)N[C@H](C(=O)N[C@H](C(=O)NCC(=O)O)[C@@H](C)O)C(C)C)[C@@H](C)CC)[C@@H](C)O)C(C)C)C(C)C` [WFHHIFRGIVHVGKTIHRLVTG], the MIC was determined as 2 µM (≈ 5.22 µg/mL) in assay [13]; 4 µM (≈ 10.4 µg/mL) in assay [14]; 4 µM (≈ 10.4 µg/mL) in [15]; 2 µM (≈ 5.22 µg/mL) in assay [16]; 4 µM (≈ 10.4 µg/mL) in assay [17]; 2 µM (≈ 5.22 µg/mL) in assay [18]. The MIC in [19], in [20], in [21], in assay [22], in assay [23] and in assay [24] was 2 µM (≈ 5.22 µg/mL) throughout. The MIC in assay [25] and in assay [26] was 2 µM (≈ 5.22 µg/mL) each time.
